From patent publication US20120172359A1 (NOVARTIS AG, priority 2010, published 2012)
Where a name gives a salt, the structure may show the parent alone.

Each compound was assayed against Human BACE-1 (Homo sapiens, UniProt P56817) (assay: Test 1: Inhibition of Human BACE-1). Settings: Test 1; recombinant BACE-1 (extracellular domain), acetate buffer pH 4.5, 1 hour with test compound at room temperature, fluorescence-quenched peptide substrate; read-out: Bace IC50.
Format: biochemical

Sequence of Human BACE-1 (P56817 46-457 limits assumed): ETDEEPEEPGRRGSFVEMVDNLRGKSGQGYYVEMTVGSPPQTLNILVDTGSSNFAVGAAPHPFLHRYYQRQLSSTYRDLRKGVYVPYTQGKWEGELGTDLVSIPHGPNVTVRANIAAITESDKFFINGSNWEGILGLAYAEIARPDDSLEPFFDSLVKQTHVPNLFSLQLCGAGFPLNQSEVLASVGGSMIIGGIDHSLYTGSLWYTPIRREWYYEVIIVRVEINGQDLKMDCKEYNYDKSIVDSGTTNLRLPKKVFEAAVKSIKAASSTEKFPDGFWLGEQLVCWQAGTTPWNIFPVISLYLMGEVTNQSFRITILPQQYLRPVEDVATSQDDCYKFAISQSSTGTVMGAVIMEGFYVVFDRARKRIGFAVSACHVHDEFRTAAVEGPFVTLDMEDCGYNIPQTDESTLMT

Q: Which IC50 does the source give for `Cc1cnc(C(=O)Nc2ccc(F)c(C3(C)COCC(N)=N3)c2)cn1` (stereo not drawn) [Example 61, 5-Methyl-pyrazine-2-carboxylic acid [3-(5-amino-3-methyl-3,6-dihydro-2H-[1,4]oxazin-3-yl)-4-fluoro-phenyl]-amide hydrochloride] here?
A: Its IC50 is 1970 nM.

Q: `CC1(c2cc(NC(=O)c3ccc(C#N)cn3)ccc2F)COCC(N)=N1` (stereo not drawn) [Example 62, 5-Cyano-pyridine-2-carboxylic acid [3-(5-amino-3-methyl-3,6-dihydro-2H-[1,4]oxazin-3-yl)-4-fluoro-phenyl]-amide hydrochloride] was tested. Which IC50 did it give?
A: The IC50 was 95 nM.

Q: `CC1(c2cc(NC(=O)c3ccc(C(N)=O)cn3)ccc2F)COCC(N)=N1` (stereo not drawn) [Example 65, Pyridine-2,5-dicarboxylic acid 5-amide 2-{[3-(5-amino-3-methyl-3,6-dihydro-2H-[1,4]oxazin-3-yl)-4-fluoro-phenyl]-amide} hydrochloride] was tested. Which IC50 did it give?
A: The IC50 was 1200 nM.

Q: `C[C@@]1(c2cc(NC(=O)c3ccc(C#N)cn3)ccc2F)CO[C@@](C)(C(F)(F)F)C(N)=N1` [Example 73, 5-Cyano-pyridine-2-carboxylic acid [3-((3R,6R)-5-amino-3,6-dimethyl-6-trifluoro-methyl-3,6-dihydro-2H-[1,4]oxazin-3-yl)-4-fluoro-phenyl]-amide hydrochloride] was tested. Which IC50 did it give?
A: The IC50 was 26 nM.

Q: How did the IC50 turn out when `COCCOc1cnc(C(=O)Nc2ccc(F)c([C@]3(C)CO[C@@](C)(C(F)(F)F)C(N)=N3)c2)cn1` [Example 74, 5-(2-Methoxy-ethoxy)-pyrazine-2-carboxylic acid [3-((3R,6R)-5-amino-3,6-dimethyl-6-trifluoromethyl-3,6-dihydro-2H-[1,4]oxazin-3-yl)-4-fluoro-phenyl]-amide hydrochloride] was run?
A: Its IC50 is 79 nM.

Q: For `CC1(C)OC[C@](c2cc(NC(=O)c3ccc(C#N)cn3)ccc2F)(C(F)F)N=C1N` [Example 79, 5-Cyano-pyridine-2-carboxylic acid[3-(5-amino-3-difluoromethyl-6,6-dimethyl-3,6-dihydro-2H-[1,4]oxazin-3-yl)-4-fluoro-phenyl]-amide], which IC50 is on record?
A: Its IC50 is 120 nM.

Q: How did the IC50 turn out when `CC1(C)OCC(c2cc(NC(=O)c3ccc(Br)cn3)ccc2F)(C(F)F)N=C1N` (stereo not drawn) [Example 80, 5-Bromo-pyridine-2-carboxylic acid [3-(5-amino-3-difluoromethyl-6,6-dimethyl-3,6-dihydro-2H-[1,4]oxazin-3-yl)-4-fluoro-phenyl]-amide hydrochloride] was run?
A: Its IC50 is 74 nM.

Q: `NC1=NC(c2cc(NC(=O)c3ccc(Br)cn3)c(F)cc2F)(C(F)F)COC1` (stereo not drawn) [Example 81, 5-Bromo-pyridine-2-carboxylic acid [5-(5-amino-3-difluoromethyl-3,6-dihydro-2H-[1,4]oxazin-3-yl)-2,4-difluoro-phenyl]-amide hydrochloride] was tested. Which IC50 did it give?
A: The IC50 was 1100 nM.

Q: Which IC50 does the source give for `N#Cc1ccc(C(=O)Nc2cc(C3(C(F)F)COCC(N)=N3)c(F)cc2F)nc1` (stereo not drawn) [Example 82, 5-Cyano-pyridine-2-carboxylic acid [5-(5-amino-3-difluoromethyl-3,6-dihydro-2H-[1,4]oxazin-3-yl)-2,4-difluoro-phenyl]-amide hydrochloride] here?
A: The IC50 was 3000 nM.

Q: For `COc1cc(Br)cnc1C(=O)Nc1cc(C2(C(F)F)COCC(N)=N2)c(F)cc1F` (stereo not drawn) [Example 83, 5-Bromo-3-methoxy-pyridine-2-carboxylic acid [5-(5-amino-3-difluoromethyl-3,6-dihydro-2H-[1,4]oxazin-3-yl)-2,4-difluoro-phenyl]-amide hydrochloride], which IC50 is on record?
A: Its IC50 is 2900 nM.

Q: `NC1=NC(c2cc(NC(=O)c3ncc(Br)cc3O)c(F)cc2F)(C(F)F)COC1` (stereo not drawn) [Example 84, 5-Bromo-3-hydroxy-pyridine-2-carboxylic acid [5-(5-amino-3-difluoromethyl-3,6-dihydro-2H-[1,4]oxazin-3-yl)-2,4-difluoro-phenyl]-amide hydrochloride] was tested. Which IC50 did it give?
A: The IC50 was 930 nM.

Q: `NC1=N[C@](CF)(c2cc(NC(=O)c3ccc(Cl)cn3)ccc2F)COC1` [Example 85, 5-Chloro-pyridine-2-carboxylic acid [3-((R)-5-amino-3-fluoromethyl-3,6-dihydro-2H-[1,4]oxazin-3-yl)-4-fluoro-phenyl]-amide hydrochloride] was tested. Which IC50 did it give?
A: Its IC50 is 26 nM.
